The subject of one assay is K562. Briefly: Cell proliferation inhibition, Cell Titer-Glo, K562. Format: cell-based. The conditions noted are these: Homo sapiens; cell proliferation assay, K562 cells. In short, it runs like this: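 K562 cells were seeded at 2500-5000 cells per well in white, clear-bottomed 384-well culture plates and treated with dilutions of test compounds for typically 3 days. Viable cells were quantified with the Cell Titer-Glo Luminescent Cell Viability Assay (Promega), which measures total ATP, read on a luminescence plate reader to derive IC50 values for proliferation inhibition.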
A general note: Cellular ATP, detected with luciferase, serves as a proxy for viable cell number.

The test system of a further assay is Ba/F3. Description: Cell proliferation inhibition, Cell Titer-Glo, Ba/F3. The conditions noted are these: Mus musculus, BaF3; cell proliferation assay, Ba/F3 cells. Format: cell-based. The gist of the method:
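Ba/F3 cells were seeded at 2500-5000 cells per well in white, clear-bottomed 384-well culture plates and exposed to serial dilutions of test compounds for 3 days. Cell Titer-Glo Luminescent Cell Viability Assay (Promega) reagent, which measures total ATP as an indicator of metabolic activity, was added. Luminescence was read on a multiwell plate reader to derive IC50 values for inhibition of proliferation.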

The test system of a further assay is Karpas-299. Description: Cell proliferation inhibition, Cell Titer-Glo, Karpas-299. Format: cell-based. The settings on record: Homo sapiens; cell proliferation assay, Karpas-299 cells. The gist of the method: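 Karpas 299 cells were seeded into white, clear-bottomed 384-well culture plates at 2500-5000 cells per well and exposed to serial dilutions of test compounds for about 3 days. Viable cell numbers were then measured with the Cell Titer-Glo Luminescent Cell Viability Assay (Promega), which detects total ATP, and IC50 values for proliferation inhibition were derived.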

The target of the next assay is T1, Jak2 (Homo sapiens, UniProt O60674).
T1 construct: 6×His- or GST-tagged kinase domain fragments of the corresponding RTKs expressed in baculovirus system; host or cells: baculovirus system
Briefly: Tyrosine kinase assay (Kinase-Glo or AlphaScreen), Jak2. The conditions noted are these: biochemical tyrosine kinase assay. In short, it runs like this: (§1)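 Test compounds, eight concentrations from 1 nM to 20 μM, were incubated with tagged recombinant kinase domain, poly(Glu-Tyr, 4:1) and 10 μM ATP. After 60 minutes at 37° C, Kinase-Glo luminescence quantified unconsumed ATP.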
A general note: In Kinase-Glo more light means more ATP remaining.

The target of another assay is T2, Alk (Homo sapiens, UniProt Q9UM73).
T2 construct: 6×His- or GST-tagged kinase domain fragments of the corresponding RTKs expressed in baculovirus system; host or cells: baculovirus system
Briefly: Tyrosine kinase assay (Kinase-Glo or AlphaScreen), Alk. The settings on record: biochemical tyrosine kinase assay. The gist of the method:
as §1

Another assay relates to H929 (multiple myeloma). Briefly: Cell proliferation inhibition, Cell Titer-Glo, H929. Format: cell-based. The conditions noted are these: Homo sapiens, NCI-H929; cell proliferation assay, H929 cells. In short, it runs like this: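 Cells seeded at 2500-5000 per well with serially diluted compound for typically 3 days. Viable cells measured by ATP luminescence (Cell Titer-Glo); IC50 from proliferation-inhibition curves.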

This is an account of results in patent US8063225B2, “Tricyclic compound derivatives useful in the treatment of neoplastic diseases, inflammatory disorders and immunomodulatory disorders” (Chembridge Corporation, priority 2006, dated 2011).

T1 sequence (O60674 849-1124 limits assumed, species assumed): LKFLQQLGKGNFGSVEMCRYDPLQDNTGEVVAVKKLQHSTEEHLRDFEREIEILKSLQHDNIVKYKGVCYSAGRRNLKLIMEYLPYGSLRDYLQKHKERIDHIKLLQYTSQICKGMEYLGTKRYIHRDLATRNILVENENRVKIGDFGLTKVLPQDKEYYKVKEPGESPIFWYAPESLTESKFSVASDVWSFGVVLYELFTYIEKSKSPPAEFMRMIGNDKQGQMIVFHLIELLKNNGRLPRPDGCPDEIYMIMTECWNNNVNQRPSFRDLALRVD
T2 sequence (Q9UM73 1116-1392 limits assumed, species assumed): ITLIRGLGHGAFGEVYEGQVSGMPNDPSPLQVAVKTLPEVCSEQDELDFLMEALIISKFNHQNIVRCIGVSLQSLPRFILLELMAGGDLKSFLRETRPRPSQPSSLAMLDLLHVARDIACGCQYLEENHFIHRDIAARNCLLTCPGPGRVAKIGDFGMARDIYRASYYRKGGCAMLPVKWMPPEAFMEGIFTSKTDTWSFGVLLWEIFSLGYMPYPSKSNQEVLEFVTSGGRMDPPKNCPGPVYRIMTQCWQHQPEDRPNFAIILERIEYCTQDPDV

Usually IC50 stands for the concentration at which inhibition is half-maximal. A high value points to weaker potency in that assay. Consider `O=C1c2cc3nc(-c4c(NC[C@@H](O)c5cccc(Cl)c5)cc[nH]c4=O)[nH]c3cc2C(=O)N1[C@@H]1CN2CCC1CC2` [compound 33], for which the 50% inhibitory concentration (IC50) in the assay on K562 is 0.5 to 5 µM; in the assay on Ba/F3, more than 15 µM; with Karpas-299 it was more than 15 µM; against Jak2, 0.5 to 5 µM; against Alk it was 0.5 to 5 µM.
Take `CCN1CCC(N2Cc3cc4nc(-c5c(NC[C@@H](O)COc6ccc(C)cc6C)cc[nH]c5=O)[nH]c4cc3C2=O)CC1` [compound 144]: the concentration for half-maximal inhibition (IC50) is more than 15 µM with K562, 0.5 to 5 µM in the assay with H929 (multiple myeloma), less than 0.5 µM on Jak2 and less than 0.5 µM on Alk.
With `Cc1ccc(OC[C@H](O)CNc2cc[nH]c(=O)c2-c2nc3cc4c(cc3[nH]2)C(=O)N(C2CCN(C)CC2)C4=O)cc1Cl` [compound 99], the IC50 was more than 15 µM with K562; more than 15 µM with Ba/F3; more than 15 µM with Karpas-299; 0.5 to 5 µM against Jak2; 5 to 15 µM against Alk.
As to `Cc1ccc(OC[C@@H](O)CNc2cc[nH]c(=O)c2-c2nc3cc4c(cc3[nH]2)C(=O)N([C@@H]2CCN(C)C2)C4=O)c(C)c1` [compound 107], the IC50 was more than 15 µM in the assay on K562; 5 to 15 µM in the assay on H929 (multiple myeloma); more than 15 µM with Ba/F3; more than 15 µM in the assay on Karpas-299; 0.5 to 5 µM at Jak2; 0.5 to 5 µM against Alk.
Take `Cc1ccc(OC[C@@H](O)CNc2cc[nH]c(=O)c2-c2nc3cc4c(cc3[nH]2)C(=O)N([C@H]2CCN(C)C2)C4=O)c(C)c1` [compound 106]: the IC50 is 5 to 15 µM with K562; 5 to 15 µM in the assay on H929 (multiple myeloma); 5 to 15 µM with Ba/F3; more than 15 µM with Karpas-299; 0.5 to 5 µM at Jak2; 0.5 to 5 µM against Alk.
`Cc1ccc(OC[C@H](O)CNc2cc[nH]c(=O)c2-c2nc3c(C)c4c(cc3[nH]2)C(=O)N(C2CCN(C)CC2)C4)c(C)c1` [compound 139]: the IC50 in the assay with K562 is more than 15 µM; in the assay on H929 (multiple myeloma), 0.5 to 5 µM; on Jak2, 0.5 to 5 µM; against Alk, 0.5 to 5 µM.
As to `Cc1ncsc1CCN1C(=O)c2cc3nc(-c4c(NC[C@@H](O)c5cccc(Cl)c5)cc[nH]c4=O)[nH]c3cc2C1=O` [compound 32], the IC50 with K562 is more than 15 µM; in the assay with H929 (multiple myeloma), 5 to 15 µM; in the assay on Ba/F3, 0.5 to 5 µM; in the assay with Karpas-299, more than 15 µM; against Jak2, more than 15 µM; against Alk, more than 15 µM.
Take `Cc1cc(C)c(OC[C@H](O)CNc2cc[nH]c(=O)c2-c2nc3cc4c(cc3[nH]2)C(=O)N(C2CCN(C)CC2)C4=O)cc1Cl` [compound 108]: the half-inhibitory concentration (IC50) is more than 15 µM in the assay with Ba/F3, 5 to 15 µM with Karpas-299, 0.5 to 5 µM on Jak2 and 0.5 to 5 µM against Alk.
For `CN1CCC(N2C(=O)c3cc4nc(-c5c(NC[C@@H](O)COc6cccc(C(F)(F)F)c6)cc[nH]c5=O)[nH]c4cc3C2=O)CC1` [compound 97], the 50% inhibitory concentration (IC50) was more than 15 µM in the assay on K562; 5 to 15 µM with H929 (multiple myeloma); more than 15 µM in the assay with Ba/F3; more than 15 µM with Karpas-299; 0.5 to 5 µM against Jak2; 5 to 15 µM at Alk.
For the compound `Cc1ccc2c(ccn2C[C@H](O)CNc2cc[nH]c(=O)c2-c2nc3cc4c(cc3[nH]2)C(=O)N(C2CCN(C)CC2)C4=O)c1` [compound 131], the IC50 in the assay with K562 is 5 to 15 µM; with H929 (multiple myeloma) it was 0.5 to 5 µM; in the assay with Ba/F3 it was more than 15 µM; in the assay on Karpas-299 it was more than 15 µM; on Jak2, 0.5 to 5 µM; on Alk, 5 to 15 µM.
In the case of `CN1CCC(N2C(=O)c3cc4nc(-c5c(N[C@H](CO)Cc6c[nH]cn6)cc[nH]c5=O)[nH]c4cc3C2=O)CC1` [compound 2], the half-maximal inhibitory concentration (IC50) was 5 to 15 µM in the assay with K562; more than 15 µM in the assay on Ba/F3; 5 to 15 µM in the assay on Karpas-299; more than 15 µM on Jak2; more than 15 µM on Alk.
For `Cc1ccc(OC[C@H](O)CNc2cc[nH]c(=O)c2-c2nc3cc4c(cc3[nH]2)CN(C2CCN(C)CC2)C4=O)c(C)c1` [compound 130], the IC50 was more than 15 µM with K562, 0.5 to 5 µM in the assay with H929 (multiple myeloma), less than 0.5 µM against Jak2 and 0.5 to 5 µM against Alk.
For the compound `C[C@H](O)CN1C(=O)c2cc3nc(-c4c(NC[C@@H](O)c5cccc(Cl)c5)cc[nH]c4=O)[nH]c3cc2C1=O` [compound 31], the IC50 was 5 to 15 µM in the assay with K562; 0.5 to 5 µM with H929 (multiple myeloma); more than 15 µM in the assay on Ba/F3; more than 15 µM with Karpas-299; 5 to 15 µM against Jak2; more than 15 µM against Alk.
Take `Cc1ccc(OC[C@H](O)CNc2cc[nH]c(=O)c2-c2nc3c(C)c4c(cc3[nH]2)CN(C2CCN(C)CC2)C4=O)c(C)c1` [compound 140]: the IC50 with K562 is 5 to 15 µM; in the assay on H929 (multiple myeloma) it was less than 0.5 µM; on Jak2 it was less than 0.5 µM; at Alk, 0.5 to 5 µM.
Turning to `Cc1ccc(OC[C@H](O)CNc2cc[nH]c(=O)c2-c2nc3cc4c(cc3[nH]2)C(=O)N(C2CCNCC2)C4=O)c(C)c1` [compound 142], the values for the IC50 in the assay on K562, against Jak2 and against Alk were 5 to 15 µM, 0.5 to 5 µM and 0.5 to 5 µM, respectively.
Regarding `Cc1cc(C)n(C[C@H](O)CNc2cc[nH]c(=O)c2-c2nc3cc4c(cc3[nH]2)C(=O)N(C2CCN(C)CC2)C4=O)n1` [compound 92], the concentration for half-maximal inhibition (IC50) in the assay with K562 is more than 15 µM; in the assay on Ba/F3 it was more than 15 µM; with Karpas-299, more than 15 µM; at Jak2 it was 5 to 15 µM; on Alk, more than 15 µM.
As for `Cc1ccc(OCC(O)CNc2cc[nH]c(=O)c2-c2nc3cc4c(cc3[nH]2)C(=O)N(C2CCN(C)CC2)C4=O)c(C)c1` (stereo not shown) [compound 15], the IC50 in the assay on K562 was in the range of 0.5 to 5 µM; in the assay with H929 (multiple myeloma), 0.5 to 5 µM; at Jak2 it was 0.5 to 5 µM; on Alk, 5 to 15 µM.
For the compound `COc1cccc(OCC(O)CNc2cc[nH]c(=O)c2-c2nc3cc4c(cc3[nH]2)C(=O)N(C2CCN(C)CC2)C4=O)c1` (stereo not shown) [compound 6], the values for the IC50 in the assay on H929 (multiple myeloma), on Jak2 and against Alk were 5 to 15 µM, 0.5 to 5 µM and 0.5 to 5 µM, respectively.
With `O=C1c2cc3nc(-c4c(NC[C@@H](O)c5cccc(Cl)c5)cc[nH]c4=O)[nH]c3cc2C(=O)N1CCc1ccncc1` [compound 28], the IC50 in the assay with K562 was more than 15 µM; with Ba/F3, more than 15 µM; in the assay on Karpas-299, more than 15 µM; on Jak2 it was 5 to 15 µM; on Alk, 5 to 15 µM.
In the case of `CC(C)(CO)CN1C(=O)c2cc3nc(-c4c(NC[C@@H](O)c5cccc(Cl)c5)cc[nH]c4=O)[nH]c3cc2C1=O` [compound 26], the IC50 is 5 to 15 µM in the assay on K562, 0.5 to 5 µM against Jak2 and more than 15 µM against Alk.
Regarding `Cc1ccc(Cl)c(C)c1OC[C@H](O)CNc1cc[nH]c(=O)c1-c1nc2cc3c(cc2[nH]1)C(=O)N(C1CCN(C)CC1)C3=O` [compound 111], the IC50 in the assay on K562 was more than 15 µM; with Ba/F3, 5 to 15 µM; in the assay with Karpas-299, 0.5 to 5 µM; on Jak2 it was 0.5 to 5 µM; on Alk, 0.5 to 5 µM.
In the case of `O=C1c2cc3nc(-c4c(NC[C@@H](O)c5cccc(Cl)c5)cc[nH]c4=O)[nH]c3cc2C(=O)N1C[C@@H]1CCCO1` [compound 29], the IC50 is 0.5 to 5 µM in the assay with K562; 5 to 15 µM with Ba/F3; 5 to 15 µM in the assay on Karpas-299; more than 15 µM on Jak2; more than 15 µM against Alk.
On to `Cc1ccc(OC[C@H](O)CNc2cc[nH]c(=O)c2-c2nc3cc4c(c(C)c3[nH]2)CN(C2CCN(C)CC2)C4=O)c(C)c1` [compound 132], for which the half-inhibitory concentration (IC50) in the assay with K562 is more than 15 µM; with H929 (multiple myeloma), less than 0.5 µM; against Jak2 it was less than 0.5 µM; against Alk, 0.5 to 5 µM.
As to `CCN1CCC(N2C(=O)c3cc4nc(-c5c(NC[C@@H](O)COc6ccc(C)cc6C)cc[nH]c5=O)[nH]c4cc3C2=O)CC1` [compound 143], the IC50 in the assay with H929 (multiple myeloma) is 5 to 15 µM; at Jak2, 0.5 to 5 µM; against Alk, less than 0.5 µM.
Take `CCc1cc(C)ccc1OC[C@H](O)CNc1cc[nH]c(=O)c1-c1nc2cc3c(cc2[nH]1)CN(C1CCN(C)CC1)C3=O` [compound 141]: the half-maximal inhibitory concentration (IC50) in the assay with K562 was more than 15 µM; in the assay with H929 (multiple myeloma), less than 0.5 µM; against Jak2 it was less than 0.5 µM; at Alk it was 0.5 to 5 µM.
On to `Cc1ccc(OC[C@@H](O)CNc2cc[nH]c(=O)c2-c2nc3cc4c(cc3[nH]2)C(=O)N(C2CCN(C)CC2)C4=O)c(C)c1` [compound 64], for which the half-inhibitory concentration (IC50) was 5 to 15 µM in the assay with K562; 5 to 15 µM with Ba/F3; more than 15 µM with Karpas-299; 0.5 to 5 µM on Jak2; 5 to 15 µM against Alk.
Take `CN1CCC(N2C(=O)c3cc4nc(-c5c(NC[C@@H](O)c6cccc(Cl)c6)cc[nH]c5=O)[nH]c4cc3C2=O)CC1` [compound 1]: the IC50 in the assay on K562 was 5 to 15 µM; in the assay with H929 (multiple myeloma) it was 0.5 to 5 µM; against Jak2 it was 0.5 to 5 µM; against Alk, 0.5 to 5 µM.
